Results taken from article PMC11480511 (Scientific Reports, 2024).
Values joined by “and” are separate entries in the source; they are usually repeats but may differ in a detail not shown here. Equal values may be shown once.

Tests used:
topoisomerase Iα = molecular target: T1, topoisomerase Iα (Homo sapiens, UniProt P11387); test: Topoisomerase I inhibition, human DNA topoisomerase Elisa kit; format: biochemical; conditions: ± SEM
T1 construct: purchased
T1 sequence (P11387 1-765): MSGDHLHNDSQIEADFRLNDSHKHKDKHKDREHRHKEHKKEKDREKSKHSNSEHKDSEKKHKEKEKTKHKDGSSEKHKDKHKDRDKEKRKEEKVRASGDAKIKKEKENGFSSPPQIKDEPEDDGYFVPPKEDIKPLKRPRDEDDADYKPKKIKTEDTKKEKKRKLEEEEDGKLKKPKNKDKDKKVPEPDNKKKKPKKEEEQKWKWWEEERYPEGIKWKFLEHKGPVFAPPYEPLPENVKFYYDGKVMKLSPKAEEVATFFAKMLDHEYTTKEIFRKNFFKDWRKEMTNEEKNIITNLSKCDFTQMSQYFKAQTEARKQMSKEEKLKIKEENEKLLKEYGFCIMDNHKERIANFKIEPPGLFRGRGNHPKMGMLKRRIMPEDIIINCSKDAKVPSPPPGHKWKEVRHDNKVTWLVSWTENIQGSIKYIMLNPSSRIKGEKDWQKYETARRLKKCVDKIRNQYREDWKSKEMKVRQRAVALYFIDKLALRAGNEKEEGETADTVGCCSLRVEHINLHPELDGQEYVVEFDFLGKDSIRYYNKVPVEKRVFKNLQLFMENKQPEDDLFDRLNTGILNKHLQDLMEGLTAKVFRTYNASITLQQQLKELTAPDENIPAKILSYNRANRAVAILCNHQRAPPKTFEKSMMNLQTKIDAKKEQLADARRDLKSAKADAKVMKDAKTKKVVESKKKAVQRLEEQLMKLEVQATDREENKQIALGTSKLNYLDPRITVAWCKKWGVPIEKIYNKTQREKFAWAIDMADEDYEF
Method: Two folds of serial dilution was accomplished after standards and the tested compounds were dissolved in sample diluent. Horseradish peroxidase (HRP-avidin) and biotin-conjugated antibody were diluted 10 times each. Each well received 100 µL of each concentration of the standard or test chemicals, which were then added and incubated at 37 °C for 60 min. […] The microtiter plate was rinsed three times and given room to aspirate. After that, the plate was incubated at 37 °C for 60 min with 100 µL of HRP-avidin solution added to each well. After that, the plate was aspirated and cleaned 5 times. Each well received 90 µL of TMB substrate, and the plate was incubated for 30 min. at 37 °C in a light-protected environment. Finally, stop solution (50 µL) was loaded, and within 5 min, the absorbance at 450 nm was measured spectrophotometrically.
Topoisomerase enzyme assay
Topoisomerase I and II inhibitory activity […]
topoisomerase IIβ inhibitory activity utilizing the human DNA topoisomerase Elisa kit.
Standards and the tested compound were dissolved in sample diluent and 2 folds serial dilution was achieved. Biotin-conjugated antibody and avidin conjugated Horseradish Peroxidase (HRP-avidin) were diluted to 10 folds. 100 μL of each concentration of standard or test compound were added to each well. Incubate at 37 °C for 1 h. The liquid in each well was removed. 10 0 μL of Biotin-conjugated antibody solution was added to each well followed by incubation for 1 h at 37 °C. The microtiter plate was allowed to aspirate and washed 3 times. 100 μL of avidin conjugated Horseradish Peroxidase (HRP -avidin) solution was added to each well and the plate was incubated for 1 h at 37 °C. The plate was aspirated and washed 5 times. 90 μL of TMB substrate were added to each well and the plate was incubated for 30 min at 37 °C and protected from light. 50 μL stop so lution was added. The absorbance was measured spectrophotometrically within 5 min at 450 nm .

normal cell line WI 38 = test: MTT cytotoxicity assay on normal cells; format: cell-based; conditions: Homo sapiens; normal cell line WI 38, MTT assay, ± SEM; read-out: IC50 W138 normal cell line (µM ± SEM)
Method: After 24 h of culture incubation and supernatants discarded. […] Each test should include a blank containing complete medium without cells. […] Add reconstituted MTT in an amount equal to 10% of the culture medium volume. […] Spectrophotometrically absorbance was measured at a wavelength of 570 nm. […] Results from all experiments were recorded and the percentage of viable cells was calculated.

[1] = tested on: melanoma LOX IMVI cell line; test: Cell cycle analysis, propidium iodide flow cytometry; format: cell-based, human
Method: The effect of compound 3i on cell cycle progression of LOX IMVI cell line was evaluated using Propidium Iodide Flow Cytometry Kit to measure the DNA content according to the reported protocols. The LOX IMVI cells used in this work were obtained from the American Type Culture Collection. Cells were cultured in DMEM (Invitrogen/Life Technologies) supplemented with 10% FBS (Hyclone), 10 µg/ml insulin (Sigma), and 1% penicillin-streptomycin. The remaining chemicals and reagents were all from Sigma or Invitrogen. Growth media was removed, cells washed with warm PBS and aspirated. Adhered cells were detached from media by addition of 5 ml 10% trypsin/EDTA and incubated 2 min in the incubator. The suspended cells harvested, aspirated to a falcon tube, centrifuged at 2000 rpm for 5 min. Cell count performed after suspending the cells into a fresh media and stained with trypan blue, counted and used for preparation of the appropriate number of cells.

[2] = tested on: melanoma LOX IMVI cell line; test: Annexin V-FITC/PI apoptosis and necrosis assay; format: cell-based, human; conditions: LOX IMVI treated with IC50 concentration
Method: Following the manufacturer’s instructions, the Annexin V-FITC Apoptosis Detection Kit (Bio Vision Research Products, USA) was used to analyze cell apoptosis. Briefly, 500 µL of 1X Binding buffer was used to resuspend 1-5 × 10^5 cells that had been harvested by centrifugation. Propidium iodide (PI, 50 mg/ml) and Annexin V-FITC, each administered in 5 µL, were also added. The cells were first incubated for 5 minutes at room temperature in the dark before being analyzed using the Annexin V-FITC binding flow cytometric technique (Ex = 488 nm; Em = 530 nm) with a FITC signal detector (typically FL1) and PI staining with a phycoerythrin emission signal detector (typically FL2). Before exposing adherent cells to Annexin V-FITC, we gently trypsinized and gave them a single wash in serum-containing medium (A.3–5). Cell synchronisation is done using Double-thymidine synchronization method and the used Media is double modifed eagle media (DMEM).
Cell cycle analysis and detection of apoptosis
Annexin V-FITC apoptosis assay
Cell apoptosis were analyzed by the Annexin V-FITC Apoptosis Detection Kit (Bio Vision Research Products, USA). Thereafter, 1-5 x 10^5 cells were collected by centrifugation and resuspend in 500 μl of 1X Binding Buffer. Added 5 μl of Annexin V-FITC and 5 μl of propidium iodide (PI 50mg/ml, optional.). The cells incubated at room temperature for 5 min in the dark; Analyzed by Annexin V-FITC binding flow cytometric method (Ex = 488 nm; Em = 530 nm) using FITC signal detector (usually FL1) and PI staining by the phycoerythrin emission signal detector (usually FL2). For adherent cells, we gently trypsinized and washed cells once with serum-containing media before incubation with Annexin V-FITC (A.3-5). […]

[3] = LOX IMVI treated at IC50 concentration

O=C(O)c1cn(C2CC2)c2cc(N3CCN(C(=O)CCCN4C(=O)CSC4=O)CC3)c(F)cc2c1=O [3 L, 1-Cyclopropyl-7-(4-(4-(2,4-dioxothiazolidin-3-yl)butanoyl)piperazin-1-yl)-6-fluoro-4-oxo-1,4-dihydroquinoline-3-carboxylic acid]
IC50 (topoisomerase Iα): 18.8 ± 1.02 µM

O=C(O)c1cn(C2CC2)c2cc(N3CCN(C(=O)CCCN4C(=O)SC(=Cc5ccccc5)C4=O)CC3)c(F)cc2c1=O [3a, 7-[4-[4-[5-benzylidene-2,4-dioxo-thiazolidin-3-yl]butanoyl]piperazin-1-yl]-1-cyclopropyl-6-fluoro-4-oxo-quinoline-3-carboxylic acid]
IC50 (topoisomerase Iα): 14.5 ± 0.79 µM

O=C(O)c1cn(C2CC2)c2cc(N3CCN(C(=O)CCCN4C(=O)S/C(=C\c5ccc(F)cc5)C4=O)CC3)c(F)cc2c1=O [3i]
IC50 (normal cell line WI 38): 45.1 ± 2.43 µM | IC50 (topoisomerase Iα): 4.8 µM and 4.77 µM | %G0-G1 DNA content [1, 3]: 45.53% | %G2/M DNA content [1, 3]: 9.41% | %Pre-G1 DNA content [1, 3]: 38.51% | %S DNA content [1, 3]: 45.06% | increase of percentage of cells at pre-G1 ([1]; LOX IMVI, versus control): 20 folds | Apoptosis Early [2]: 3.03% | Apoptosis Late [2]: 24.17% | Apoptosis Total [2]: 38.51% | Necrosis [2]: 11.31%

O=C(O)c1cn(C2CC2)c2cc(N3CCN(C(=O)CCCN4C(=O)SC(=Cc5cccc6ccccc56)C4=O)CC3)c(F)cc2c1=O [3j, 1-cyclopropyl-6-fluoro-7-[4-[4-[5-(1-naphthylmethylene)-2,4-dioxo-thiazolidin-3-yl]butanoyl]piperazin-1-yl]-4-oxo-quinoline-3-carboxylic acid]
IC50 (topoisomerase Iα): 23.5 ± 1.28 µM

O=C(O)c1cn(C2CC2)c2cc(N3CCN(C(=O)CCCN4C(=O)S/C(=C\c5ccc([N+](=O)[O-])cc5)C4=O)CC3)c(F)cc2c1=O [3k]
IC50 (topoisomerase Iα): 36.6 ± 1.99 µM
